Here are results for two compounds from patent US20060122153A1, “Antineoplastic ether lipid compounds with modifications at the sn-2 carbon” (priority 2003, published 2006).

For series [1], the system named is COLO 205. The series is described as follows: NCI growth inhibition screen, colon panel. It is filed as cell-based, human. Set-up: key: = means equivalent activity; + means that it appears to be significantly better (i.e., by ˜2x); < means it appears to be less active than ET18OCH3 (˜2x); a combination like =/+ or </+ means that activity is dependent upon the isomer; a combination like =/+ or </+ means that activity is dependent upon the isomer. To be noted: COLO 205, Colon; from GI50s. Here is the method:
(§1) Candidates deemed suitable for in vivo testing were then synthesized in large scale quantities and some of this material was sent to the NCI's Developmental Therapeutics Program for a battery of growth inhibitory studies against various human tumor cell lines (60 cell lines, 9 different panels). The remainder of the material was used to assess in vivo efficacy using murine tumor models. Additionally, studies were conducted on the lead candidates to discern mechanism of action with particular emphasis on these agents apoptotic ability as measured by caspase 3 activity. The details (materials and methods) for these various assays are described further in the following discussion.
(§2) Ten compounds were also sent to NCI's Drug Discovery Program for screening against numerous human tumor cell lines (9 panels total: renal ovarian, colon, CNS, non-small cell lung, leukemia, breast, melanoma, and prostate). The data are shown in FIGS. 2a-i which also include data regarding D- and L-ET-18-OCH3 (listed as L-EL and D-EL in the figures). Upon examining the data, one is struck by how 1R and 1a′S standout in comparison to the other compounds, especially for the renal, ovarian, colon, and CNS panels.

The subject of series [2] is HCC-2998. Description: NCI growth inhibition screen, colon panel. Set-up: key: = means equivalent activity; + means that it appears to be significantly better (i.e., by ˜2x); < means it appears to be less active than ET18OCH3 (˜2x); a combination like =/+ or </+ means that activity is dependent upon the isomer; a combination like =/+ or </+ means that activity is dependent upon the isomer. It is filed as cell-based, human. Particulars: HCC-2998, Colon; from GI50s. Here is the method: as §1, §2

Series [3] relates to HCT-116. Description: NCI growth inhibition screen, colon panel. It is filed as cell-based, human. Set-up: key: = means equivalent activity; + means that it appears to be significantly better (i.e., by ˜2x); < means it appears to be less active than ET18OCH3 (˜2x); a combination like =/+ or </+ means that activity is dependent upon the isomer; a combination like =/+ or </+ means that activity is dependent upon the isomer. To be noted: HCT-116, Colon; from GI50s. Here is the method: as §1, §2

In series [4] the test system is HCT-15. The series is described as follows: NCI growth inhibition screen, colon panel. It is filed as cell-based, human. Set-up: key: = means equivalent activity; + means that it appears to be significantly better (i.e., by ˜2x); < means it appears to be less active than ET18OCH3 (˜2x); a combination like =/+ or </+ means that activity is dependent upon the isomer; a combination like =/+ or </+ means that activity is dependent upon the isomer. To be noted: HCT-15, Colon; from GI50s. Here is the method: as §1, §2

Series [5] relates to HT29. Description: NCI growth inhibition screen, colon panel. To be noted: from GI50s. Set-up: key: = means equivalent activity; + means that it appears to be significantly better (i.e., by ˜2x); < means it appears to be less active than ET18OCH3 (˜2x); a combination like =/+ or </+ means that activity is dependent upon the isomer; a combination like =/+ or </+ means that activity is dependent upon the isomer. The format is cell-based, human. Here is the method: as §1, §2

Series [6] concerns KM12. Description: NCI growth inhibition screen, colon panel. Set-up: key: = means equivalent activity; + means that it appears to be significantly better (i.e., by ˜2x); < means it appears to be less active than ET18OCH3 (˜2x); a combination like =/+ or </+ means that activity is dependent upon the isomer; a combination like =/+ or </+ means that activity is dependent upon the isomer. To be noted: from GI50s. The format is cell-based, human. Here is the method: as §1, §2

Series [7] relates to SW-620. The series is described as follows: NCI growth inhibition screen, colon panel. It is filed as cell-based, human. Set-up: key: = means equivalent activity; + means that it appears to be significantly better (i.e., by ˜2x); < means it appears to be less active than ET18OCH3 (˜2x); a combination like =/+ or </+ means that activity is dependent upon the isomer; a combination like =/+ or </+ means that activity is dependent upon the isomer. To be noted: SW-620, Colon; from GI50s. Here is the method: as §1, §2

In series [8] the test system is SF-268. Description: NCI growth inhibition screen, CNS panel. Set-up: key: = means equivalent activity; + means that it appears to be significantly better (i.e., by ˜2x); < means it appears to be less active than ET18OCH3 (˜2x); a combination like =/+ or </+ means that activity is dependent upon the isomer; a combination like =/+ or </+ means that activity is dependent upon the isomer. It is filed as cell-based, human. Particulars: SF-268, CNS; from GI50s. Here is the method: as §1, §2

Series [9] relates to SF-295. Description: NCI growth inhibition screen, CNS panel. The format is cell-based, human. Set-up: key: = means equivalent activity; + means that it appears to be significantly better (i.e., by ˜2x); < means it appears to be less active than ET18OCH3 (˜2x); a combination like =/+ or </+ means that activity is dependent upon the isomer; a combination like =/+ or </+ means that activity is dependent upon the isomer. Particulars: SF-295, CNS; from GI50s. Here is the method:
as §1, §2

The test system of series [10] is SF-539. The series is described as follows: NCI growth inhibition screen, CNS panel. It is filed as cell-based, human. Set-up: key: = means equivalent activity; + means that it appears to be significantly better (i.e., by ˜2x); < means it appears to be less active than ET18OCH3 (˜2x); a combination like =/+ or </+ means that activity is dependent upon the isomer; a combination like =/+ or </+ means that activity is dependent upon the isomer. To be noted: SF-539, CNS; from GI50s. Here is the method:
as §1, §2

For series [11], the system named is SNB-19. Description: NCI growth inhibition screen, CNS panel. It is filed as cell-based, human. Set-up: key: = means equivalent activity; + means that it appears to be significantly better (i.e., by ˜2x); < means it appears to be less active than ET18OCH3 (˜2x); a combination like =/+ or </+ means that activity is dependent upon the isomer; a combination like =/+ or </+ means that activity is dependent upon the isomer. To be noted: SNB-19, CNS; from GI50s. Here is the method:
as §1, §2

Series [12] deals with U-251. Description: NCI growth inhibition screen, CNS panel. The format is cell-based, human. Set-up: key: = means equivalent activity; + means that it appears to be significantly better (i.e., by ˜2x); < means it appears to be less active than ET18OCH3 (˜2x); a combination like =/+ or </+ means that activity is dependent upon the isomer; a combination like =/+ or </+ means that activity is dependent upon the isomer. Particulars: U-251, CNS; from GI50s. Here is the method:
as §1, §2

Series [13] deals with platelets in dog whole blood. The series is described as follows: Platelet aggregation in whole blood (Chronolog whole blood aggregometer).
Procedure: Briefly, whole citrated blood is diluted 1:2 with sterile saline and placed in a warm chamber with a mini stir bar. An electronic probe, measuring electrical resistance, is inserted in the sample. The aggregometer is calibrated and the baseline is observed to detect any spontaneous aggregation. The test sample is added and allowed to run for at least 6 minutes. If the sample is an agonist the platelets will start to aggregate and stick to the electronic probe causing resistance across the electrodes to increase. This resistance, in ohms, is measured 6 minutes post addition of sample. The test samples are run at 25, 100, 200, 400 and 800 uM and compared to 100 uM L-ET-18-OCH3.
Collection of Blood Sample for in vitro Platelet Aggregation Testing: Venous blood is collected in 4.5 mL Vacutainer tubes containing 0.129 M sodium citrate using a 21G needle or larger. Blood is immediately mixed by gentle inversion 15-20 times and kept at room temperature. Dilution ratio is 1 to 9 (3.8% citrate solution:blood). One (2.0 mL) Vacutainer tube containing EDTA is also collected for platelet counts. Complete blood counts (CBC) are measured on the CDC Technologies Hemavet 1500 to ensure that the test subject's platelets are within normal range. Amy vials of hemolytic blood or blood containing any clots should be discarded. Platelet aggregation testing must be completed within 3 hours of blood collection. After this time the ability of platelets to aggregate decreases.
Dilutions were prepared in PBS or saline at 40× concentration. (25 uL test sample are added to 1000 uL diluted blood (1:40)).

In the case of `CCCCCCCCCCCCCCCCCCOC[C@@H](COP(=O)([O-])OCC[N+](C)(C)C)OS(C)(=O)=O` [1a′S], the “Performance as compared to ET-18-O—CH3” value in [1] was 0; in series [2] it was 128; in [3] it was 256; in series [4], 512; in series [5], 0; in series [6], 0. For the same compound, the “Performance as compared to ET-18-O—CH3” value in series [7] is listed as 1024; in series [8] it was 0; in series [9], 0; in [10] it was 8192; in series [11], 0; in series [12], “=/+”. The “Relative Platelet Aggregation (Ohms)” value in series [13] (25 μM), in series [13] (100 μM), in series [13] (200 μM), in [13] (400 μM) and in series [13] (800 μM) was 0 Ohms each time.

Regarding `CCCCCCCCCCCCCCCCCCOCC(COP(=O)([O-])OCC[N+](C)(C)C)OS(C)(=O)=O` (centres unmarked) [Compound 1aR], the “Performance as compared to ET-18-O—CH3” value was “=” in series [1]; “+” in [2]; “+” in [3]; “=” in series [4]; “=” in series [5]; “=” in series [6]. The “Performance as compared to ET-18-O—CH3” value is given as “+” in series [7]; “=” in series [8]; “=” in series [9]; “+” in series [10]; “=” in [11]; “+” in [12]. In [13], the “platelet aggregation response (in words)” value is “none of the “L” isomer compounds (1cR or 1aR) evoked an aggregatory response”. The “Relative Platelet Aggregation (Ohms)” value in series [13] (25 μM), in [13] (100 μM), in [13] (200 μM), in series [13] (400 μM) and in series [13] (800 μM) was 0 Ohms throughout.
